Experimental data reported in patent publication US9434711B2 (Janssen Pharmaceutica, NV, priority 2007, dated 2016).

Target: canine TRPM8 (Canis lupus familiaris, UniProt Q1A7N1)
Experiment: In Vitro Canine TRPM8 Functional Assay (Ca2+ fluorescence, icilin activation)
Type: cell-based
Conditions: for IC50: HEK293 cells stably expressing canine TRPM8, icilin activation, eight-point dose-response, read-out: IC50; for inhibition at 0.2 µM: read-out: % Inh @ 0.2
In short: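 Canine TRPM8 stably expressed in HEK293; compound added 5 min before icilin challenge (~80% max response), with fluorescent Ca2+ signal tracked throughout.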

[1] = compound at 0.2 μM, canine TRPM8, icilin activation

canine TRPM8, sequence (Q1A7N1 1-1104): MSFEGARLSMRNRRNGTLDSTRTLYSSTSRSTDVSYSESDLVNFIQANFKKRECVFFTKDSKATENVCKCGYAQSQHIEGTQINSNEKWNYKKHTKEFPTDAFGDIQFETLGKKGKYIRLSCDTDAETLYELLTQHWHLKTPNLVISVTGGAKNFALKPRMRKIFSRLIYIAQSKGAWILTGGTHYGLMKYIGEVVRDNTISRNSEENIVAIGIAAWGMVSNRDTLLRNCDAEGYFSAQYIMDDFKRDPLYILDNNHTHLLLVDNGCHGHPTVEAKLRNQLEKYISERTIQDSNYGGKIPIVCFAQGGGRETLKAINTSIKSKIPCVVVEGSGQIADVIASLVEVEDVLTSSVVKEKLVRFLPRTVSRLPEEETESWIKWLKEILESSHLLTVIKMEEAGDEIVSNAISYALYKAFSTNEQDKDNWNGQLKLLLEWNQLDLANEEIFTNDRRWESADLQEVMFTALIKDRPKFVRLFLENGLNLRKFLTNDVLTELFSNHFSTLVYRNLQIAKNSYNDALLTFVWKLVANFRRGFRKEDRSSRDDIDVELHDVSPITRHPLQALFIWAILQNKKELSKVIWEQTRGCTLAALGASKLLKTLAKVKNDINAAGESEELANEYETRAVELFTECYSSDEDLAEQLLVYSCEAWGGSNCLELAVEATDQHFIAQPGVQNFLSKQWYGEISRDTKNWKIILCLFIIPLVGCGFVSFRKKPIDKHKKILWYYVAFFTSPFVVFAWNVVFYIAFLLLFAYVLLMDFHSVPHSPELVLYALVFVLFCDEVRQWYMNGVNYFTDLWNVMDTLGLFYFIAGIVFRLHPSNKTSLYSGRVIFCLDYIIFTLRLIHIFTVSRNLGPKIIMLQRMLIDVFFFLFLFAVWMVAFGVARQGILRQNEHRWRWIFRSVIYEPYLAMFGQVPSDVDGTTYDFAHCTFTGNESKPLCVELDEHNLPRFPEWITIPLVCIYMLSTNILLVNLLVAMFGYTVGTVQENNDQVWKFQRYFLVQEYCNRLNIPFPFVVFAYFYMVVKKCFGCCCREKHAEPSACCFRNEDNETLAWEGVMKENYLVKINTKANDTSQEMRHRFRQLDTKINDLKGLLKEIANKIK

Row | IC50 | inhibition at 0.2 µM [1] | SMILES | % Inh @ 0.2 (μM) [1]
1 | 29 nM | 96% | CS(=O)(=O)Nc1cccc(S(=O)(=O)N(CCC(F)(F)F)c2sc3ccccc3c2Cl)c1 [Compound 714, N-(3-Chloro-benzo[b]thiophen-2-yl)-3-methanesulfonylamino-N-(3,3,3-trifluoro-propyl)-benzenesulfonamide] | 
2 | 24 nM | 101% | CS(=O)(=O)Nc1cccc(S(=O)(=O)N(CCC(F)(F)F)c2sc3ccccc3c2Br)c1 [Compound 715, N-(3-Bromo-benzo[b]thiophen-2-yl)-3-methanesulfonylamino-N-(3,3,3-trifluoro-propyl)-benzenesulfonamide] | 
3 | 9 nM | 101% | CS(=O)(=O)Nc1ccc(S(=O)(=O)N(CCC2CC2)c2sc3ccccc3c2Cl)cc1 [Compound 716, N-(3-Chloro-benzo[b]thiophen-2-yl)-N-(2-cyclopropyl-ethyl)-4-methanesulfonylamino-benzenesulfonamide] | 
4 | 5 nM | 102% | CS(=O)(=O)Nc1ccc(S(=O)(=O)N(CCC2CC2)c2sc3ccccc3c2Br)cc1 [Compound 717, N-(3-Bromo-benzo[b]thiophen-2-yl)-N-(2-cyclopropyl-ethyl)-4-methanesulfonylamino-benzenesulfonamide] | 
5 | 39 nM | 96% | O=S(=O)(Nc1ccc(S(=O)(=O)N(CCC2CC2)c2sc3ccccc3c2Cl)cc1)C1CC1 [Compound 718, N-(3-Chloro-benzo[b]thiophen-2-yl)-4-cyclopropanesulfonylamino-N-(2-cyclopropyl-ethyl)-benzenesulfonamide] | 
6 | 23 nM | 100% | O=S(=O)(Nc1ccc(S(=O)(=O)N(CCC2CC2)c2sc3ccccc3c2Br)cc1)C1CC1 [Compound 719, N-(3-Bromo-benzo[b]thiophen-2-yl)-4-cyclopropanesulfonylamino-N-(2-cyclopropyl-ethyl)-benzenesulfonamide] | 
7 | 4.2 nM | 102% | Cc1c(N(CCCCC(F)(F)F)S(=O)(=O)c2cccc3nccnc23)sc2ccccc12 [Compound 721, N-(3-Methyl-benzo[b]thiophen-2-yl)-N-(5,5,5-trifluoro-pentyl)-quinoxalin-5-yl-sulfonamide] | 
8 |  | 28% | Cc1c(N(Cc2ccc(F)c(C(F)(F)F)c2)S(=O)(=O)c2nc3ccccc3n2C)sc2ccccc12 [Compound 722, N-(3-Methyl-benzo[b]thiophen-2-yl)-N-(4-fluoro-3-trifluoromethyl-benzyl)-1-methyl-1H-benzimidazole-2-sulfonamide] | 
9 | 18 nM | 102% | Cc1c(N(Cc2ccc(F)c(C(F)(F)F)c2)S(=O)(=O)c2cccc3nccnc23)sc2ccccc12 [Compound 723, N-(3-Methyl-benzo[b]thiophen-2-yl)-N-(4-fluoro-3-trifluoromethyl-benzyl)-quinoxalin-5-yl-sulfonamide] | 
10 | 5.3 nM | 102% | Cc1c(N(Cc2ccc(F)c(C(F)(F)F)c2)S(=O)(=O)CCC=O)sc2ccccc12 [Compound 724, N-(4-Fluoro-3-trifluoromethyl-benzyl)-N-(3-methyl-benzo[b]thiophen-2-yl)-3-oxo-propane-1-sulfonamide] | 
11 | 7.8 nM | 102% | Cc1c(N(Cc2ccc(F)c(C(F)(F)F)c2)S(=O)(=O)CCC(C)(C)O)sc2ccccc12 [Compound 725, N-(4-Fluoro-3-trifluoromethyl-benzyl)-N-(3-methyl-benzo[b]thiophen-2-yl)-3-hydroxy-3-methyl-butane-1-sulfonamide] | 
12 | 90.3 nM | 69% | Cc1c(N(CCC2CC2)S(=O)(=O)c2nc3ccccc3[nH]2)sc2ccccc12 [Compound 726, N-(Cyclopropyl-ethyl)-N-(3-methyl-benzo[b]thiophen-2-yl)-1H-benzimidazole-2-sulfonamide] | 
13 |  |  | Cc1c(N(CCCCC(F)(F)F)S(=O)(=O)c2nc3ccccc3[nH]2)sc2ccccc12 [Compound 727, N-(3-Methyl-benzo[b]thiophen-2-yl)-N-(5,5,5,-trifluoro-pentyl)-1H-benzimidazole-2-sulfonamide] | 16%
14 |  | 44% | Cc1c(N(Cc2ccc(F)c(C(F)(F)F)c2)S(=O)(=O)c2nc3ccccc3[nH]2)sc2ccccc12 [Compound 728, N-(3-Methyl-benzo[b]thiophen-2-yl)-N-(4-fluoro-3-trifluoromethyl-benzyl)-1H-benzimidazole-2-sulfonamide] | 
15 |  | 75% | Cc1c(N(Cc2ccc(OC(F)(F)F)cc2)S(=O)(=O)c2nc3ccccc3[nH]2)sc2ccccc12 [Compound 729, N-(3-Methyl-benzo[b]thiophen-2-yl)-N-(4-trifluoromethoxy-benzyl)-1H-benzimidazole-2-sulfonamide] | 
16 | 23.6 nM | 100% | CC(=O)c1c(N(Cc2ccc(F)cc2)S(=O)(=O)c2ccc(Br)cc2)sc2ccccc12 [Compound 730, N-(3-Acetyl-benzo[b]thiophen-2-yl)-4-bromo-N-(4-fluoro-benzyl)benzene-sulfonamide] | 
17 | 44.4 nM | 87% | CC(=O)c1c(N(Cc2ccc(OC(F)(F)F)cc2)S(=O)(=O)c2ccc(Br)cc2)sc2ccccc12 [Compound 731, N-(3-Acetyl-benzo[b]thiophen-2-yl)-4-bromo-N-(4-(trifluoromethoxy)-benzyl)benzenesulfonamide] | 
18 | 13.3 nM | 100% | CC(=O)c1c(N(Cc2ccccc2)S(=O)(=O)c2ccc(Br)cc2)sc2ccccc12 [Compound 732, N-(3-Acetyl-benzo[b]thiophen-2-yl)-N-(benzyl)-4-bromobenzenesulfonamide] | 
19 | 13.4 nM | 100% | CC(=O)c1c(N(Cc2ccc(F)c(Cl)c2)S(=O)(=O)c2ccc(Br)cc2)sc2ccccc12 [Compound 733, N-(3-Acetyl-benzo[b]thiophen-2-yl)-4-bromo-N-(3-chloro-4-fluoro-benzyl)benzenesulfonamide] | 
20 | 9.7 nM | 102% | CC(C)(O)c1c(N(Cc2ccc(F)cc2)S(=O)(=O)c2ccc(Br)cc2)sc2ccccc12 [Compound 734, N-(4-Fluorobenzyl)-N-(3-(1-hydroxy-1-methyl-ethyl)-benzo[b]thiophen-2-yl)-4-bromo-benzenesulfonamide] | 
21 | 26.8 nM | 101% | CC(C)(O)c1c(N(Cc2ccc(OC(F)(F)F)cc2)S(=O)(=O)c2ccc(Br)cc2)sc2ccccc12 [Compound 735, N-(3-(1-Hydroxy-1-methyl-ethyl)-benzo[b]thiophen-2-yl)-N-(4-trifluoromethoxybenzyl)-4-bromo-benzenesulfonamide] | 
22 | 17.2 nM | 101% | CC(C)(O)c1c(N(Cc2ccccc2)S(=O)(=O)c2ccc(Br)cc2)sc2ccccc12 [Compound 736, N-(Benzyl)-N-(3-(1-hydroxy-1-methyl-ethyl)-benzo[b]thiophen-2-yl)-4-bromo-benzenesulfonamide] | 

Row | SMILES | IC50 | inhibition at 0.2 µM [1] | % Inh @ 0.2 (μM) [1]
23 | Cc1c(N(CCCCC(F)(F)F)S(=O)(=O)c2nc3ccccc3[nH]2)sc2ccccc12 [Compound 720, N-(3-Methyl-benzo[b]thiophen-2-yl)-N-(5,5,5-trifluoro-pentyl)-1H-benzimidazole-2-sulfonamide] |  | 52% | 
